Data published in PMC10762035, “Molecular basis of human trace amine-associated receptor 1 activation” (Nature Communications, 2024).
Where a chain is given by its changes, count along the chain named. Where “and” joins values, the source holds several entries; their conditions need not be identical. Equal values may be shown once.

Assays:
Assay type in all cases: cell-based
hTA1 C13S = molecular target: T1, hTA1 C13S (Homo sapiens, UniProt Q96RJ0, C13S); test: GloSensor cAMP accumulation assay, C13S mutant; conditions: log[Compound], single wells
T1 construct: expressed in transfected cells; host or cells: HEK293T
T1 sequence (Q96RJ0 1-339 C13S): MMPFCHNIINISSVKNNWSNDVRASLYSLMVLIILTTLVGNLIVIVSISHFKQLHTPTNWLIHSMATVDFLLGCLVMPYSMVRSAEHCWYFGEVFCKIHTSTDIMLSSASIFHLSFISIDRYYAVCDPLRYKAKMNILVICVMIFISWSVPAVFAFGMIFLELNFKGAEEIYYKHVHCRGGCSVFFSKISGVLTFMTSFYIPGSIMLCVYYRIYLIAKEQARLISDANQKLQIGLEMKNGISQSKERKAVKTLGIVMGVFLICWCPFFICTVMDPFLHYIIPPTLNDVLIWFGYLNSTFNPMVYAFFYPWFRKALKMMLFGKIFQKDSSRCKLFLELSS

hTA1 S107C = molecular target: T2, hTA1 S107C (Homo sapiens, UniProt Q96RJ0, S107C); test: GloSensor cAMP accumulation assay, S107C mutant;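 further: cells transiently co-expressing receptor and GloSensor biosensor, luminescence read after 30 min agonist exposure at room temperature, concentration-response fitted by nonlinear regression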
T2 construct: expressed in transfected cells; host or cells: HEK293T
T2 sequence (Q96RJ0 1-339 S107C): T1 sequence (Q96RJ0 1-339 C13S) with S13C, S107C

hTA1 I290Y = molecular target: T3, hTA1 I290Y (Homo sapiens, UniProt Q96RJ0, I290Y); test: GloSensor cAMP accumulation assay, I290Y mutant; conditions: for Normalized Luminescence Counts for Concentration Response Curves: I120Y, log[Agonist], single replicates; for cAMP accumulation response, normalized (concentration-response source data, single replicate values): hTA1 I290Y (N=3), log[Compound];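 on cAMP accumulation response, normalized (concentration-response source data, single replicate values): normalized to the maximum response of β-PEA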
T3 construct: expressed in transfected cells; host or cells: HEK293T
T3 sequence (Q96RJ0 1-339 I290Y): T1 sequence (Q96RJ0 1-339 C13S) with S13C, I290Y

hTA1 T271N = molecular target: T4, hTA1 T271N (Homo sapiens, UniProt Q96RJ0, T271N); test: GloSensor cAMP accumulation assay, T271N mutant; conditions: for Normalized Luminescence Counts for Concentration Response Curves: log[Agonist], single replicates
T4 construct: expressed in transfected cells; host or cells: HEK293T
T4 sequence (Q96RJ0 1-339 T271N): T1 sequence (Q96RJ0 1-339 C13S) with S13C, T271N

How did the “C13S - Normalized Luminescence Counts (N=2)” value (hTA1 C13S; M = -6) turn out when NCCc1ccccc1 [β-PEA, β-phenethylamine] was run?
Its value is 78.7162 and 86.7856 and 86.6715 and 80.2383 and 65.7078 and 88.5033.

What about the “C13S - Normalized Luminescence Counts (N=2)” value (hTA1 C13S; M = -6.522) of the same compound?
The value was 64.3281 and 49.293 and 64.0617 and 65.0295 and 54.7831 and 70.7417.

And the “ΔEmax values (each mutant value - WT average)” value (hTA1 S107C; S107C mutant minus WT average)?
The value was 0.

What about the “Emax values, Mean” value (hTA1 S107C; S107C mutant, β-PEA = 100, each line an independent experiment, 3 replicates) of the same compound?
Its value is 100.

What about the “Span ± SEM (Emax normalized to β-PEA)” value (hTA1 S107C; S107C, n=2) of the same compound?
The value was 100 ± 3.55.

And the “pEC50 ± SEM” value (hTA1 S107C; S107C, n=2)?
Its value is 6.69 ± 0.71.

What about the EC50 (hTA1 S107C; S107C, n=2, read-out: EC50) of the same compound?
The EC50 was 205 nM.

What about the “Normalized Luminescence Counts for Concentration Response Curves” value (hTA1 I290Y; M -5) of the same compound?
Its value is 106.77 and 91.3809 and 125.546 and 108.456 and 111.021 and 107.357 and 101.946 and 94.0497 and 113.225.

What about the “Normalized Luminescence Counts for Concentration Response Curves” value (hTA1 I290Y; M -6) of the same compound?
The value was 87.3796 and 52.2914 and 77.8381 and 75.4765 and 68.8807 and 65.9492 and 71.4902 and 68.1063 and 59.0825.

And the “Normalized Luminescence Counts for Concentration Response Curves” value (hTA1 I290Y; M -7)?
Its value is 31.0537 and 19.6655 and 31.3615 and 25.6411 and 22.3431 and 26.3739 and 25.2433 and 15.0915 and 12.8355.

And the “Normalized Luminescence Counts for Concentration Response Curves” value (hTA1 I290Y; M -8)?
The value was 5.199 (2×) and 2.121 and 24.1753 and 3.655 and 1.823 and 1.556 and -1.828 and -0.7002.

What about the “Normalized Luminescence Counts for Concentration Response Curves” value (hTA1 I290Y; M -9) of the same compound?
Its value is -0.341 (2×) and -2.496 and 2.189 and -2.575 and -4.773 and 0.4278 and -1.828 and -2.956.

And the “Normalized Luminescence Counts for Concentration Response Curves” value (hTA1 I290Y; M -10)?
The value was -0.0332 (2×) and -1.88 and -5.873 and -4.407 and -4.773 and 2.684 and -1.828 and -0.7002.

And the “Normalized Luminescence Counts for Concentration Response Curves” value (hTA1 I290Y; M -11)?
Its value is 0.5824 (2×) and -1.264 and -5.506 and -5.14 and -3.674 and -1.828 (3×).

What about the “Normalized Luminescence Counts for Concentration Response Curves” value (hTA1 I290Y; M -12) of the same compound?
Its value is 1.506 and -1.88 and -0.341 and -3.674 and -4.773 and 8.4185 and 1.556 (2×) and 2.684.

What about the “Span ± SEM (Emax normalized to β-PEA)” value (hTA1 I290Y; I290Y) of the same compound?
Its value is 100 ± 3.64.

What about the “pEC50 ± SEM” value (hTA1 I290Y; I290Y) of the same compound?
Its value is 6.43 ± 0.07.

What about the “ΔEmax values (each mutant value - WT average)” value (hTA1 I290Y; I290Y minus WT average) of the same compound?
Its value is 0.

And the “ΔpEC50 values (each mutant value - WT average), Mean” value (hTA1 I290Y; I290Y minus WT average)?
Its value is -0.6326 and -0.5624 and -0.7969.

And the EC50 (hTA1 I290Y; I290Y, read-out: EC50)?
Its EC50 is 372 nM.

And the “pEC50 values, Mean” value (hTA1 I290Y; I290Y, single experiments (3 replicates each))?
Its value is 6.461 and 6.531 and 6.297.

What about the “Emax values, Mean” value (hTA1 I290Y; I290Y, single experiments (3 replicates each), β-PEA = 100) of the same compound?
Its value is 100.

And the “cAMP accumulation response, normalized (concentration-response source data, single replicate values)” value (shortened to “cAMP accumulation response, normalized”) (hTA1 I290Y; M = -5)?
Its value is 106.77 and 91.3809 and 125.546 and 108.456 and 111.021 and 107.357 and 101.946 and 94.0497 and 113.225.

And the “cAMP accumulation response, normalized” value (hTA1 I290Y; M = -5.522)?
Its value is 77.8381 and 72.2978 and 82.1471 and 73.6443 and 85.0039 and 85.3703 and 81.642 and 86.1539 and 57.9545.

And the “cAMP accumulation response, normalized” value (hTA1 I290Y; M = -6)?
Its value is 87.3796 and 52.2914 and 77.8381 and 75.4765 and 68.8807 and 65.9492 and 71.4902 and 68.1063 and 59.0825.

What about the “cAMP accumulation response, normalized” value (hTA1 I290Y; M = -6.522) of the same compound?
Its value is 54.4459 and 35.6706 and 50.4446 and 60.0862 and 56.7882 and 48.7266 and 47.8027 and 37.651 (2×).

And the “cAMP accumulation response, normalized” value (hTA1 I290Y; M = -7)?
The value was 31.0537 and 19.6655 and 31.3615 and 25.6411 and 22.3431 and 26.3739 and 25.2433 and 15.0915 and 12.8355.

And the “cAMP accumulation response, normalized” value (hTA1 I290Y; M = -7.522)?
Its value is 12.5863 and 7.662 and 9.508 and 11.7164 and 13.1822 and 20.5109 and 7.196 and 4.9397 and 3.812.

And the “cAMP accumulation response, normalized” value (hTA1 I290Y; M = -8)?
The value was 5.199 (2×) and 2.121 and 24.1753 and 3.655 and 1.823 and 1.556 and -1.828 and -0.7002.

What about the “cAMP accumulation response, normalized” value (hTA1 I290Y; M = -8.522) of the same compound?
The value was 0.8902 and -1.264 and -0.0332 and -1.109 and -1.842 and -4.04 and 0.4278 and -2.956 and -0.7002.

What about the “cAMP accumulation response, normalized” value (hTA1 I290Y; M = -9) of the same compound?
The value was -0.341 (2×) and -2.496 and 2.189 and -2.575 and -4.773 and 0.4278 and -1.828 and -2.956.

What about the “cAMP accumulation response, normalized” value (hTA1 I290Y; M = -9.522) of the same compound?
Its value is -0.9566 and -2.803 and -1.264 and -1.109 and -0.7424 and -1.475 and 0.4278 and -4.0841 and -0.7002.

And the “cAMP accumulation response, normalized” value (hTA1 I290Y; M = -10)?
Its value is -0.0332 (2×) and -1.88 and -5.873 and -4.407 and -4.773 and 2.684 and -1.828 and -0.7002.

What about the “cAMP accumulation response, normalized” value (hTA1 I290Y; M = -10.522) of the same compound?
Its value is -0.6488.

What about the “pEC50 values, Mean” value (hTA1 T271N; T271N mutant, Figure 5B, each row one independent experiment (3 replicates)) of the same compound?
Its value is 6.643 and 6.211.

What about the “Emax values, Mean” value (hTA1 T271N; T271N mutant, Figure 5B, β-PEA = 100, each row one independent experiment (3 replicates)) of the same compound?
Its value is 100.

What about the “Normalized Luminescence Counts for Concentration Response Curves” value (hTA1 T271N; T271N, M -7) of the same compound?
The value was 26.2249 and 22.04 and 25.7454 and 13.723 and 18.7522 and 17.914.

What about the “Normalized Luminescence Counts for Concentration Response Curves” value (hTA1 T271N; T271N, M -7.522) of the same compound?
Its value is 13.7138 and 6.913 and 9.921 and 7.175 and 4.66 and 5.236.

What about the “Normalized Luminescence Counts for Concentration Response Curves” value (hTA1 T271N; T271N, M -8) of the same compound?
Its value is 4.385 and 5.17 and 5.257 and 2.984 (2×) and 1.569.

What about the “Normalized Luminescence Counts for Concentration Response Curves” value (hTA1 T271N; T271N, M -8.522) of the same compound?
Its value is 2.467 and 1.9 and 1.508 and 0.2596 and -0.631 and 0.5215.

And the “Normalized Luminescence Counts for Concentration Response Curves” value (hTA1 T271N; T271N, M -9)?
The value was 0.4181 and 0.5052 and 1.246 and -0.2643.

And the “Span ± SEM (Emax normalized to β-PEA)” value (hTA1 T271N; T271N, n=2)?
Its value is 100 ± 3.3.

What about the “pEC50 ± SEM” value (hTA1 T271N; T271N, n=2) of the same compound?
The value was 6.43 ± 0.06.

What about the EC50 (hTA1 T271N; T271N, n=2, read-out: EC50) of the same compound?
The EC50 was 374 nM.
